Assay results: patent US6706686B2, “Inhibition of histone deacetylase as a treatment for cardiac hypertrophy” (The Regents of the University of Colorado, priority 2001, dated 2004)
Entries after “also recorded” stand apart in the source; their conditions may differ.

How the values were obtained:
[1] = system: acetylated lysine residues / Histone H3 in cardiac myocytes; experiment: Detection of acetylated lysine residues (Western blot, immunofluorescence); format: cell-based, rat; conditions: exposure for 24 hours
Experimental: (§1) Cell culture. Ventricular myocytes from one-day-old rats were plated at low density in MEM with 5% calf serum, and studied in serum-free MEM. Cultures were treated with PE (#P6126, Sigma-Aldrich Corp., St. Louis, Mo.), IL-1 (#501-RL, R&D Systems, Minneapolis, Minn.), TSA (#GR-309, BIOMOL Research Laboratories, Inc., Plymouth Meeting, Pa.) or their vehicles (ascorbic acid for PE; bovine serum albumin for IL-1; dimethyl sulfoxide for TSA).
Detection of acetylated lysine residues. Total cell extract was subjected to Western blot analysis using antibodies from Cell Signaling Technology (Beverly, Mass.) (acetylated lysine antibody: #9441, acetylated histone H3 antibody at Lysine 9: #9671, acetylated histone H3 antibody at Lysine 23: #9674, histone H3 antibody: #9712). Nuclear localization of acetylated histone H3 was examined by immunostaining using the same antibodies.

[2] = system: SERCA, α-/β-MyHC, ANP, BNP, cardiac α-actin mRNA in cardiac myocytes; experiment: Myocyte-specific mRNA expression by RNase protection assay; format: cell-based, rat
Experimental: FIGS. 1A-C. TSA alters agonist-induced gene repression. Cultured cardiac myocytes were treated with PE (20 μmol/L) or IL-1 (1 ng/mL) for 48 hrs. TSA (30 nmol/L) was added 30 min. prior to treatment with PE or IL-1. Myocyte-specific mRNA expression (SERCA2a (FIG. 1A), αMyHC (FIG. 1B), βMyHC (FIG. 1C) was assayed in 5 μg total RNA by RNase protection assay. Mean data are from 4 cultures, and are presented as % of control after normalization to GAPDH signal.
as §1
Quantification of myocyte hypertrophy and myocyte-specific mRNA expression. Growth of cultured myocytes was quantified by content of radiolabeled protein after continuous incubation with ^14C-phenylalanine. For evaluation of the myocyte gene program, total RNA was extracted from cells with TRIZol (GIBCO, Carlsbad, Calif.) and used in RNase protection assay with probes for SERCA, α-/β-MyHC, ANP, BNP, and cardiac α-actin. All samples also included glyceraldehyde phosphate dehydrogenase (GAPDH) as an internal control for RNA loading.

[3] = system: SERCA, αMyHC, βMyHC promoters in cultured myocytes; experiment: CAT reporter assay of myocyte-specific promoters; format: cell-based, rat; conditions: TSA 30 nmol/L
Experimental: FIGS. 2A-D. Over-expression of HDACs repress muscle-specific promoters. Cultured myocytes were transfected for 72 hrs. with expression vectors (2 μg per ˜3×10^5 cells) for Flag-tagged HDAC1, 4, 5 (or its backbone vector) and CAT reporter (5 μg) constructs for SERCA (FIG. 2A), αMyHC (FIG. 2B), βMyHC (FIGS. 2C and 2D) genes, plus SV40-driven secreted alkaline phosphatase (SEAP 1 μg, Clontech). TSA was used at 30 nmol/L, and added just after the transfection. PE […] (20 μmol/L) was added 24 hrs. later and CAT assays performed after an additional 48 hours. Mean data are from n=3 different cultures, and are presented as % of pCMV after normalization to SEAP activity in the media. Over-expression of HDAC was confirmed by Western blot for Flag.
Transfection. Myocytes were transfected using calcium-phosphate co-precipitation with cytomegalovirus promoter driven Flag-tagged expression vectors for HDACs 1, 4, 5 and reporter plasmids carrying the rat promoters for SERCA (3500 bp), αMyHC (2900 bp), or βMyHC (3300 bp) driving expression […] of the chroramphenicol acetyltransferase (CAT) gene. Reporter expression was evaluated after 48 hours as described previously with corection for transfection efficiency with SEAP (BD Biosciences Clontech, Palo Alto, Calif.). Over-expression of HDACs was confirmed by Western blot analyses using anti-Flag M2 antibody (Sigma-Aldrich Corp. St. Louis, Mo.).

[4] = system: ANF promoter in neonatal rat cardiomyocytes; experiment: ANF promoter transcription (luciferase) assay; format: cell-based
Experimental: FIGS. 3A-D. HDAC inhibitors block the activation of ANF reporter by phenylphrine without cytotoxicity. Neonatal rat cardiomyocytes were co-transfected with a total of 1 μg of the mouse 3 kb ANF promoter fragment and CMV-Lac Z plasmids. (FIG. 3A) The ANF promoter is minimally active in unstimulated cardiomyocytes. […] (FIG. 3B) Lac Z expression by the constitutive promoter CMV. Treatment with HDAC inhibitors augmented CMV activity with and without phenylephrine co-treatment. (FIGS. 3C and 3D) The graphs show the measurements of adenylate kinase activity remains constant in the medium after […] of culturing cardiomyocytes in the absence or presence of hypertrophic stimulants FBS, PE or ET-1.
Cardiomyocyte isolation. Hearts were harvested from 15-day timed-pregnant female Sprague-Dawley rats (Harlan, Houston, Tex.). After mincing in phosphate-buffered saline, cardiomyocytes were isolated from successive digestion fractions of 0.1% (w/v) Pancreatin (Sigma, St. Louis, Mo.) solution. Fractions were collected; resuspended in plating medium, pooled; and then plated for 2 hours to separate fibroblasts from cardiomyocyte population. Suspended cells were recollected and plated in 6-well dishes at 1×10^6 cells/well for transfection and immunofluorescence experiments, and 2×10^6 cells in 10 cm dishes for RNA analysis.
Transcription assay. Twenty-four hours after plating, cells were transfected with total of 1 μg/ml for 5 hrs using Lipofectamine Plus reagent (Invitrogen, Carlsbad, Calif.). Transfected cells were incubated 24 hrs then treated for an additional 24 hrs. Cells were lysed and their lysates assayed with the Luciferase Assay System (Promega, Madison, Wis.) for luminescence using Lucysoft 2 luminometer (Rosys Anthos, New Castle, Del.).

[5] = system: rat neonatal cardiomyocytes; experiment: Gene chip array analysis; format: cell-based; conditions: two-or-more-fold difference
Experimental: FIGS. 7A-B. TSA induces the activation of genes that are involved in cardiomyocyte differentiation. […] (FIG. 7B) Four genes were inactivated by phenylephrine and activated by TSA (results from one phenylephrine chip, two phenylephrine/TSA chips, and one TSA chip.)
Gene chip and analysis. RNA was isolated using Trizol (Invitrogen, Carlsbad, Calif.) from untreated, phenylephrine-treated, TSA-treated, and phenylephine/TSA co-treated rat neonatal cardiomyocytes. The RNAs were prepared and hybridized on U34A chips (Affymetrix, Inc., Santa Clara, Calif.) according to Affymetrix protocols. The intensity of hybridization was detected by and changes in gene expression were determined and analyzed by Micro Array Suite 5.0 (Affymetrix, Inc., Santa Clara, Calif.).

ANF locus / NRSE = conditions: prior data; cited from earlier work

Q: Which “protein acetylation (acetylated lysine residues, Histone H3)” value [1] does the source give for `CC(/C=C/C(=O)NO)=C\[C@@H](C)C(=O)c1ccc(N(C)C)cc1` [TSA, Trichostatin A] here?
A: effectively increased acetylated lysine residues

Q: What about the “αMyHC (so in the source) expression in presence of IL-1 alone” value ([2]; IL-1 alone) of the same compound?
A: increased αMyHC expression

Q: And the “IL-1 suppression of PE induction of αMyHC (so in the source)” value ([2]; PE/IL-1 co-treated cells)?
A: reversed the IL-1 effect

Q: What about the “basal SERCA2a mRNA expression” value ([2]; TSA 30 nmol/L, 48 hrs) of the same compound?
A: increased the basal expression

Q: What about the “basal αMyHC mRNA expression” value ([2]; TSA 30 nmol/L, 48 hrs) of the same compound?
A: increased the basal expression

Q: And the “reversal of αMyHC repression in IL-1 treated (or co-treated) cells” value ([2]; TSA pre-treatment, IL-1)?
A: less prominent

Q: And the “PE effect on αMyHC expression” value ([2]; TSA pre-treatment, PE)?
A: nearly complete reversal of the PE effect

Q: And the “repression of SERCA expression by hypertrophic stimuli” value ([2]; TSA pre-treatment, PE 20 μmol/L or IL-1 1 ng/mL)?
A: substantial reversal in the repression of SERCA expression

Q: What about the “gene expression of cardiac α-actin, ANP, or BNP” value ([2]; any hypertrophic treatment condition) of the same compound?
A: did not affect gene expression

Q: And the “basal expression or PE-induction of αMyHC (so in the source)” value ([2]; basal or PE)?
A: had no effects on either the basal expression or PE-induction

Q: What about the “basal SERCA2 promoter activity” value [3] of the same compound?
A: increased the basal promoter activities

Q: What about the “basal αMyHC promoter activity” value [3] of the same compound?
A: increased the basal promoter activities

Q: And the “basal βMyHC promoter activity” value [3]?
A: not that of βMyHC

Q: What about the “activation of ANF promoter by phenylephrine” value ([4]; phenylephrine 100 μM, TSA 85 nM, NaBut 5 mM, HC-toxin 5 ng/ml) of the same compound?
A: did block the promoter's activation by phenylephrine treatment completely; also recorded: prevented the activation of the ANF promoter

Q: And the “ANF promoter activity, inhibitor alone” value ([4]; unstimulated cardiomyocytes)?
A: did not activate the ANF promoter

Q: And the “expression of big Tau-microtubule-associated protein, ubiquitin carboxyl-terminal hydrolase, Thy-1 cell-surface glycoprotein, MyHC class I antigen” value ([5]; genes down-regulated by phenylephrine)?
A: up-regulated by TSA

Q: What about the “expression of cytochrome oxidase subunit VIII, mouse T-complex protein, insulin growth factor binding protein-3” value ([5]; genes up-regulated by phenylephrine) of the same compound?
A: down-regulated by TSA

Q: What about the “ANF expression at low dose” value (ANF locus / NRSE) of the same compound?
A: can induce the ANF expression
